The values that follow come from article PMC4644980, “The FDA-approved natural product dihydroergocristine reduces the production of the Alzheimer’s disease amyloid-β peptides” (Scientific Reports, 2015).

The target in assay [1] is T1, Nicastrin (NCT) (Homo sapiens, UniProt Q92542).
T1 construct: Full length human NCT was purified as described previously; 6×His (C); FLAG (C); made in house; host or cells: High Five insect cells (baculovirus made in Sf9)
Briefly: surface plasmon resonance, Nicastrin immobilized. Type of assay: binding. As to conditions: SPR, Biacore T100, CM5 chip; read-out: equilibrium dissociation constant (Kd), Nicastrin (NCT). Here is the method:
A Biacore sensor Chip NTA that is designed to bind His-tagged proteins was used to immobilize γ-secretase. The SPR assay was performed in a running buffer (10 mM HEPES, 150 mM NaCl in the presence of 1% DMSO, pH 7.4). The purified His-tagged γ-secretase overexpressing human PS1, Flag-Pen-2, Aph-1a2-HA, and NCT-V5/His (see above) was diluted 6 times in DMSO-free running buffer. For each binding curve, the running buffer containing 500 μM NiCl2 was first injected to saturate the NTA chip. Then, His-tagged γ-secretase was injected and immobilized on the Ni^2+ -coated sensor chip. Compounds at the indicated concentrations were injected onto the surface of the sensor chip, and the corresponding binding spectrum was recorded. The sensor chip was regenerated with regeneration buffer (10 mM HEPES, 150 mM NaCl, 350 mM EDTA, pH 8.3). Purified human NCT (100 μg) was immobilized onto the flow cell of a CM5 sensor chip in 10 mM sodium acetate (pH 4.0) by using an amine coupling kit. The SPR assay was performed in HBS-P running buffer (10 mM HEPES, 150 mM NaCl and 0.005% surfactant P20 in the presence of 1% DMSO, pH 7.4). […] The Kd values were determined with Biacore evaluation 3.1 software. […]
Recombinant bacmids were used to transfect Sf9 cells to make the baculovirus, which was then used to infect High Five suspension insect cells (Invitrogen). […]

For assay [2], the system named is γ-secretase subunits (mNCT, PS1-NTF). Briefly: Western blot of γ-secretase subunits in HEK293 or fibroblast cells. Type of assay: cell-based. Here is the method: for 10 min before adding 25 µl of the stop solution. The fluorescence was monitored with a microplate reader (emission at 590 nm after excitation at 560 nm).
Western blot and antibodies
WT HEK293 or fibroblast cells were collected and lysed in 1% Nonidet P-40-HEPES buffer, and equal amounts of proteins [normalized by BCA (Pierce)] were separated by SDS-PAGE onto a 12% Tris-glycine gel, transferred onto a PVDF membrane (Bio-Rad, USA) and further probed with antibody CT15 (for APP/APP-CTFs, 1:2000, […]
(1:1000; Abcam, Cambridge, MA, USA) for PS1-NTF, UD-1 (for Pen-2, 1:500; a gift of Dr. Helena Karlström, Karolinska Institute, Sweden), NCT164 (for NCT, 1:1000; BD Bioscience, Bedford, MA, USA) as well as with an antibody for β-actin (1:2000, Abmart). For the analysis of Notch NICD, cell extracts were separated by SDS-PAGE onto a 10% Tris-glycine gel, transferred onto a PVDF membrane and blotted for NICD with an anti-Notch Ab1744 antibody (for the free N-terminus of NICD, 1:500, Cell Signaling Technology, Beverly, MA, USA).
Samples from in vitro γ-secretase activity assays were run on 16% Tricine-SDS-PAGE gels and transferred onto PVDF to detect Aβ and AICD-Flag with 6E10 (1:1000, Covance, Berkeley, CA, USA) and CT15 antibodies (1:5000, Sigma-Aldrich), […]

For assay [3], the target named is T2, purified γ-secretase (Homo sapiens, UniProt P49768+Q92542).
T2 construct: made in house
Briefly: cell-free in vitro C100-Flag γ-secretase assay with purified enzyme. The assay is classed as biochemical. The text has this:
The density of the AICD-Flag and Aβ total bands was quantified by Odyssey software (Supplementary data Fig. S5). […] The residue was then separated by Bicine/urea SDS-PAGE, together with an Aβ standard of synthetic human Aβ38, Aβ40 and Aβ42, followed by Western blot detection with anti-Aβ antibody (6E10, left panel), or quantification by ELISA (right panel). Black bars, Aβ [1–40]; gray bars, Aβ[1–42]. Data were presented as the means ± sd. […] The change in response units over time is shown. […]
γ-Secretase was purified from S-20 cells as described previously. The recombinant APP-based protein substrate of γ-secretase, namely human C100-Flag, was overexpressed in E. coli and purified by using an anti-Flag M2 resin[31]. Full length human NCT was purified as described previously (for details, see Supplementary information)[32].
Cell-free in vitro γ-secretase assays using the recombinant C100-Flag substrate and purified γ-secretase were performed as described in the Supplementary information.
Aβ1-x peptides secreted in the cell media were quantitatively measured by ELISA (IBL, Gunma, Japan) according to the standard protocol from the manufacturer. Aβ40 and Aβ42 generated in the C100-Flag γ-secretase assays stopped with 0.5% SDS (final concentration) were quantified with the human Beta Amyloid or [1–42] colorimetric ELISA kit, respectively. […]
γ-Secretase activity assays
γ-Secretase purified from S-20 cells was solubilized in 0.2% (w/v) CHAPSO in 50 mM HEPES buffer (pH 7.0) containing of 150 mM NaCl, 5 mM MgCl2 and 5 mM CaCl2, and incubated with 0.1% (w/v) PC and 1 μM or otherwise indicated […]
concentrations of substrate at 37 °C for 4 h, after which the enzymatic reactions were stopped by adding 0.5% SDS (final concentration). The samples were analyzed by Western Blot for AICD-Flag or Aβ. […]

“And” between values parts separate entries of the source, which are not always exact repeats. Identical values can stand only once. Counter-ions that a name gives are not always drawn.

T1 sequence (Q92542 34-709): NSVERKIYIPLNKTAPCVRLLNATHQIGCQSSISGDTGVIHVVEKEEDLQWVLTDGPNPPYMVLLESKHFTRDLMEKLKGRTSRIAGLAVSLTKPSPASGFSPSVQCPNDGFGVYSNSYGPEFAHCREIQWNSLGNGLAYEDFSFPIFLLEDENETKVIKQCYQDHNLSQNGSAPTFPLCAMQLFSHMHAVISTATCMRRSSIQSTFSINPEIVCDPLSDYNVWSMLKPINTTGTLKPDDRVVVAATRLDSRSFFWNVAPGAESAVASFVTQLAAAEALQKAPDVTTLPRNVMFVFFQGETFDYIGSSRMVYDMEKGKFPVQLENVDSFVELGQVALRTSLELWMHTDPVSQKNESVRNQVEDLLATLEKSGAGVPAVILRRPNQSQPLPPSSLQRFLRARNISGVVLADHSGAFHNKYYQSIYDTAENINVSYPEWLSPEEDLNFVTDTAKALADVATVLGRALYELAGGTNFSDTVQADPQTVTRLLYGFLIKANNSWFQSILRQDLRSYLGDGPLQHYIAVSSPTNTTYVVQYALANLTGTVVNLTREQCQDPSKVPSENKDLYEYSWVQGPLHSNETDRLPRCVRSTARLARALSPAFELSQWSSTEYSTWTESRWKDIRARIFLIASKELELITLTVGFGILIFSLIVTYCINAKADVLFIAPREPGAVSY

In the case of `CC(C)[C@@]1(NC(=O)[C@@H]2C[C@@H]3c4cccc5[nH]cc(c45)C[C@H]3N(C)C2)O[C@@]2(O)[C@@H]3CCCN3C(=O)[C@H](Cc3ccccc3)N2C1=O` [DHEC, Dihydroergocristine methanesulfonate salt], the Kd in assay [1] was 9.85 µM and ~10 µM and 9.8 µM and 10 µM. Also, the “assembly and maturation of the protease complex (mNCT, PS1-NTF)” value in assay [2] is on record as “not altered”. For the same molecule, the “γ-secretase-dependent processing of C100-Flag into AICD-Flag or Aβ” value in assay [3] (1 μM C100-Flag, 37 °C, 4 h) is “inhibited”. For the same molecule, the “inhibitory effect on γ-secretase at high substrate concentration” value in assay [3] (4 μM APP-C100 compared to 1 μM) is “greatly reduced inhibitory effect”. Also, the “The potency of compound (in vitro C100 γ-secretase assay)” value in assay [3] (200 µM, compared with DHEC, estimated by densitometry) was “++”. For the same molecule, the IC50 in assay [3] (IC50, Aβ40 and Aβ42 production (cell-free assay), 1 μM C100-Flag, 37 °C, 4 h, ELISA) is ~100 µM and 100 µM.
